According to paper PMC10059712, “Structure Elucidation of Two Intriguing Neo-Debromoaplysiatoxin Derivatives from Marine Cyanobacterium Lyngbya sp. Showing Strong Inhibition of Kv1.5 Potassium Channel and Differential Cytotoxicity” (Molecules, 2023):

Target: T1, Kv1.5 K+ channel (Homo sapiens, UniProt P22460)
T1 construct: gene KCNA5; human Kv1.5 stably expressed in LTK cells (LTK-Kv1.5)
Test: patch clamp of Kv1.[…] currents in LTK-Kv1.[…] cells
Assay type: cell-based

T1 sequence (P22460 whole entry): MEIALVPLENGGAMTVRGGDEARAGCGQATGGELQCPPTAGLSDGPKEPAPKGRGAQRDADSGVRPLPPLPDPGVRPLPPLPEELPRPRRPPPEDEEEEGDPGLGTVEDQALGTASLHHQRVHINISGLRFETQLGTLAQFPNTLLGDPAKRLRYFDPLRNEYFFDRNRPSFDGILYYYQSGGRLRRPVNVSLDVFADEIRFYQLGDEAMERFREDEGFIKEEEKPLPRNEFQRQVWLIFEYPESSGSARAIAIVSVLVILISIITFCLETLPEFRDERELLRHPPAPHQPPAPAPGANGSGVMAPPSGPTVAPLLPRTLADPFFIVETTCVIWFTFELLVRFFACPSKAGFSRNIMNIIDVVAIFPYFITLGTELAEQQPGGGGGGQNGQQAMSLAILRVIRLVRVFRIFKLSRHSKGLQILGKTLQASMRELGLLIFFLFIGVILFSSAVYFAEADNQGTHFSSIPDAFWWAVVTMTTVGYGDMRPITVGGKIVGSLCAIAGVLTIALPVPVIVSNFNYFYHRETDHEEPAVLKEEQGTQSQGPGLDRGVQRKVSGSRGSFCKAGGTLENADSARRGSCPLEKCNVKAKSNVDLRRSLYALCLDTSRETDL

For `CO[C@@H](CC[C@H](C)[C@H]1O[C@]2(O)[C@H]3[C@@H](OC(=O)C[C@]3(O)[C@H](C)CC2(C)C)[C@@H]1C)c1cccc(O)c1` [compound 1, neo-debromoaplysiatoxin I], the IC50 was 2.59 ± 0.37 µM.

For `CO[C@@H](CC[C@H](C)[C@H]1O[C@]23C[C@H](OC(=O)C[C@H]([C@@H](C)O)OC(=O)CC(=O)C(C)(CC2(C)C)OO3)[C@@H]1C)c1cccc(O)c1` [compound 2, neo-debromoaplysiatoxin J], the IC50 was 1.64 ± 0.15 µM.
